Results on four compounds are retold here after ChEMBL document CHEMBL1201862, “PubChem BioAssay data set” (2004).

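Cells were grown in 96-well plates and exposed to each compound for 48 hours at five concentrations; endpoints were interpolated linearly between bracketing concentrations, or set to the highest concentration if not reached. GI50 marks 50% less growth.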 The source made the active and inactive calls. Rule as the data show it: active = GI50 up to about 1.1 µM and inactive = higher.

Test systems include CCRF-CEM; LOX IMVI; A498; BT-549; T47D; PC-3; SF-268; A549; SK-MEL-5; NCI-H460; IGROV-1; MDA-MB-435; SW-620; K562; SN12C; UACC-62; 786-0; NCI/ADR-RES; HCT-15; DU-145.
What all share (test): NCI-60 cell line screen, 48 h

With `C/C=N\n1c(C)n[nH]c1=O`, the GI50 with CCRF-CEM, in the assay on LOX IMVI, in the assay with A498, in the assay on BT-549, in the assay with T47D and with PC-3 was > 100 µM (inactive) throughout. The GI50 in the assay with SF-268, in the assay on A549, in the assay with SK-MEL-5, in the assay on NCI-H460, in the assay with IGROV-1 and with MDA-MB-435 was > 100 µM (inactive) in each case. The GI50 in the assay with SW-620, in the assay with K562, in the assay with SN12C, with UACC-62, in the assay on 786-0 and with NCI/ADR-RES was > 100 µM (inactive) each time. The figures for the GI50 with HCT-15 and in the assay on DU-145 were > 100 µM and > 100 µM (inactive), respectively.
On to `CN(Cc1cc(Cl)cc(Cl)c1)CC(C(=O)c1ccccc1)c1ccccc1` (stereo not given), for which the GI50 is < 0.0439 µM (active) in the assay on CCRF-CEM; 1.65 µM (inactive) with LOX IMVI; 14.5 µM (inactive) with A498; 3.06 µM (inactive) in the assay with BT-549; 2.02 µM (inactive) in the assay with T47D; 4.91 µM (inactive) in the assay on PC-3. In addition, the GI50 in the assay with SF-268 was 13.7 µM (inactive); in the assay on A549, 23.3 µM (inactive); in the assay with SK-MEL-5, 10.5 µM (inactive); in the assay on NCI-H460 it was 27.5 µM (inactive); in the assay on IGROV-1, 26.7 µM (inactive); in the assay on MDA-MB-435, 3.61 µM (inactive). Also, the GI50 was 0.326 µM (active) in the assay with SW-620; 0.962 µM (active) in the assay with K562; 4.67 µM (inactive) in the assay on SN12C; 2.9 µM (inactive) in the assay on UACC-62; 2.49 µM (inactive) in the assay on 786-0; 1.57 µM (inactive) in the assay on NCI/ADR-RES. Further, the GI50 was 0.368 µM in the assay on HCT-15 and 4.69 µM (inactive) in the assay on DU-145.
`N#CC(C#N)[C@@H]1CCC=C(Sc2ccccc2)[C@H]1Sc1ccccc1`: the GI50 was 1.57 µM (inactive) with CCRF-CEM; 2.46 µM (inactive) in the assay with LOX IMVI; 13.5 µM (inactive) in the assay with A498; 3.23 µM (inactive) with BT-549; 1.45 µM (inactive) in the assay on T47D; 3.86 µM (inactive) in the assay with PC-3. Moreover, the GI50 in the assay with SF-268 is 5.62 µM (inactive); in the assay with A549, 3.28 µM (inactive); in the assay with SK-MEL-5 it was 3.41 µM (inactive); in the assay with NCI-H460 it was 3.56 µM (inactive); with IGROV-1 it was 2.29 µM (inactive); with MDA-MB-435, 1.26 µM (inactive). For the same compound, the GI50 with SW-620 is 2.42 µM (inactive); in the assay on K562 it was 2.36 µM (inactive); with SN12C, 2.8 µM (inactive); with UACC-62 it was 3.56 µM (inactive); with 786-0, 2.17 µM (inactive); with NCI/ADR-RES it was 2.72 µM (inactive). Moreover, the GI50 in the assay on HCT-15 was 2.4 µM; with DU-145 it was 2.72 µM (inactive).
Take `O=C1C2=Nc3ccccc3C(O)N2c2ccccc21` (stereo not given): the GI50 with CCRF-CEM was > 92.7 µM (inactive); in the assay on LOX IMVI, 2.96 µM (inactive); with A498, 18.7 µM (inactive); in the assay with BT-549 it was 28.4 µM (inactive); in the assay on T47D it was 37.6 µM (inactive); in the assay with PC-3, > 86.9 µM (inactive). Also, the GI50 is 31.6 µM (inactive) in the assay on SF-268; 32.8 µM (inactive) in the assay with A549; 1.95 µM (inactive) in the assay with SK-MEL-5; 20.2 µM (inactive) with NCI-H460; 40.2 µM (inactive) in the assay with IGROV-1; 2.56 µM (inactive) with MDA-MB-435. For the same compound, the GI50 in the assay with SW-620 was > 100 µM (inactive); in the assay on K562 it was > 76 µM (inactive); in the assay on SN12C, 27.2 µM (inactive); with UACC-62 it was 3.51 µM (inactive); in the assay with 786-0 it was 36.6 µM (inactive); in the assay on NCI/ADR-RES, 40.3 µM (inactive). Further, the GI50 was 16.6 µM in the assay with HCT-15 and 53.3 µM (inactive) with DU-145.
